Values after ≈ are worked out from the molar mass of the structure shown.
How the values were obtained:
Assay in all cases: Test A antibacterial assay, MIC by microtitration
Format in all cases: cell-based
M. catarrhalis BC-3531 = settings: Moraxella catarrhalis, BC3531; Gram Negative Bacteria; strain BC-3531; read-out: Minimum Inhibitory Concentrations M. catarrhalis BC-3531
Protocol: (§1) Test A—Antibacterial Assays
(§2) The compounds of the present invention were tested against an assortment of Gram-negative and Gram-positive organisms using standard microtitration techniques (Cohen et. al., Antimicrob., 1985;28:766; Heifetz, et. al., Antimicrob., 1974;6:124).

E. coli EC-2549 = settings: Escherichia coli, EC2549; Gram Negative Bacteria; strain EC-2549; read-out: Minimum Inhibitory Concentrations E. coli EC-2549
Protocol: as §1, §2

H. influenzae HI-3542 = settings: Haemophilus influenzae, HI3542; Gram Negative Bacteria; strain HI-3542; read-out: Minimum Inhibitory Concentrations H. influenzae HI-3542
Protocol: as §1, §2

S pyogenes C203 = settings: Gram Positive Bacteria; strain C203; read-out: Minimum Inhibitory Concentrations S pyogenes C203
Protocol: as §1, §2

E. faecalis MGH-2 = settings: Enterococcus faecalis, MGH2; Gram Positive Bacteria; strain MGH-2; read-out: Minimum Inhibitory Concentrations E. faecalis MGH-2
Protocol: as §1, §2

S. aureus UC-76 = settings: Staphylococcus aureus, UC76; Gram Positive Bacteria; strain UC-76; read-out: Minimum Inhibitory Concentrations S. aureus UC-76
Protocol: as §1, §2

| Compound | MIC (M. catarrhalis BC-3531) | MIC (E. coli EC-2549) | MIC (H. influenzae HI-3542) | MIC (S pyogenes C203) | MIC (E. faecalis MGH-2) | MIC (S. aureus UC-76) |
| --- | --- | --- | --- | --- | --- | --- |
| O=C(O)c1cn(C2CC2)c2c(Cl)c(N3CC(O)(C4CC4)C3)c(F)cc2c1=O [drawing 132] | 0.03 mg/L (≈ 0.0764 µM) | 0.002 mg/L (≈ 0.00509 µM) | 0.03 mg/L (≈ 0.0764 µM) |  |  |  |
| Cc1c(N2CC(CCO)C2)c(F)cc2c(=O)c(C(=O)O)cn(C3CC3)c12 [drawing 130] | 0.015 mg/L (≈ 0.0416 µM) | 0.002 mg/L (≈ 0.00555 µM) | 0.008 mg/L (≈ 0.0222 µM) |  |  |  |
| Cc1c(N2CC(CCO)C2)c(F)cc2c(=O)c(C(=O)O)cn(C3CC3)c12 [drawing 133] |  |  |  | 0.25 mg/L (≈ 0.694 µM) | 0.25 mg/L (≈ 0.694 µM) | 0.03 mg/L (≈ 0.0832 µM) |
| Cc1c(N2CC(O)(C(F)(F)F)C2)c(F)cc2c(=O)c(C(=O)O)cn(C3CC3)c12 | 0.06 mg/L (≈ 0.15 µM) | 0.0004 mg/L (≈ 0.000999 µM) | 0.03 mg/L (≈ 0.0749 µM) |  |  |  |
| O=C(O)c1cn(C2CC2)c2c(Cl)c(N3CC(O)(C4CC4)C3)c(F)cc2c1=O [drawing 135] |  |  |  | 0.5 mg/L (≈ 1.27 µM) | 0.5 mg/L (≈ 1.27 µM) | 0.03 mg/L (≈ 0.0764 µM) |

— patent publication US20050096297A1, “Antibacterial agents” (priority 2003, published 2005)
